Laboratory results taken from ChEMBL document CHEMBL1152274, “Discovery of potent and selective agonists for the free fatty acid receptor 1 (FFA(1)/GPR40), a potential target for the treatment of type II diabetes” (J Med Chem, 2008).
Calls of active or inactive are those of the source. The calls are words filed in the database; no cut-off is given here.

How the values were obtained:
[1] = biological target: T1, Free fatty acid receptor 3 (Homo sapiens) (UniProt O14843); assay: Agonist activity at FFA3; format: functional
T1 sequence (whole entry): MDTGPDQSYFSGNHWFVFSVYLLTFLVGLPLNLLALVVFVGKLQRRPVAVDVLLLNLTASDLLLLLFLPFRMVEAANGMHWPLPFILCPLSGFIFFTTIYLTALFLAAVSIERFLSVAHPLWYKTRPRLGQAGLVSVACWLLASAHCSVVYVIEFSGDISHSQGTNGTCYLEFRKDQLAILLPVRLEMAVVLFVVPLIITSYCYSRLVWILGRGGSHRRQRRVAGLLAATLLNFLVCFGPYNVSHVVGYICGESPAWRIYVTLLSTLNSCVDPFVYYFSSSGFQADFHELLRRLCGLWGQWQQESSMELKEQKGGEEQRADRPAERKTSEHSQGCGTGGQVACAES

[2] = biological target: T2, Free fatty acid receptor 1 (Homo sapiens, UniProt O14842); assay: Agonist activity at human FFA1 expressed in human 1321N1 cells by calcium fluorescence assay; format: functional, cell-based
[3] = biological target: T2, Free fatty acid receptor 1; assay: Agonist activity at human FFA1 expressed in human 1321N1 cells by calcium fluorescence assay relative to 3-(4-(benzyloxy)phenyl)propionic acid; format: functional, cell-based
[4] = biological target: T3, Free fatty acid receptor 2 (Homo sapiens) (UniProt O15552); assay: Agonist activity at FFA2; format: functional
T3 sequence (whole entry): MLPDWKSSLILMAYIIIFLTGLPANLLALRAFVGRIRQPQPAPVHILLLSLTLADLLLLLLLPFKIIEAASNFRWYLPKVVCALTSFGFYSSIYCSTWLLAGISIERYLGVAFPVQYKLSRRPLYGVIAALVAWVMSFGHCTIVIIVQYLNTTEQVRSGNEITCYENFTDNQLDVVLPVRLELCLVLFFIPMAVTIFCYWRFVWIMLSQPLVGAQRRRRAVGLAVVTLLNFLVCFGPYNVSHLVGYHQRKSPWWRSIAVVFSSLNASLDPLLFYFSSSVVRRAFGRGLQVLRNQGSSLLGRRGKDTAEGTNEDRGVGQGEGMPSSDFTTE

[5] = biological target: T2, Free fatty acid receptor 1; assay: Agonist activity at human FFA1 expressed in human 1321N1 cells up to 31.6 uM by calcium fluorescence assay; format: functional, cell-based
Pancreatic islet [6] = assay: Induction of glucose-stimulated insulin secretion in pancreatic islets cells isolated from FFA1-deficient mouse; format: functional, cell-based
INS-1E [7] = assay: Enhancement of insulin secretion in rat INS-1E cells in presence of 12 mM glucose; format: functional, cell-based
Pancreatic islet [8] = assay: Induction of glucose-stimulated insulin secretion in pancreatic islets cells isolated from wild type mouse; format: functional, cell-based
INS-1E [9] = assay: Enhancement of glucose-stimulated insulin secretion in rat INS-1E cells at 3 uM; format: functional, cell-based
INS-1E [10] = assay: Enhancement of palmitate-stimulated insulin secretion in rat INS-1E cells at 10 uM; format: functional, cell-based
INS-1E [11] = assay: Reduction of basal insulin secretion in rat INS-1E cells in presence of 2.8 mM glucose; format: functional, cell-based

T2 sequence (O14842 whole entry): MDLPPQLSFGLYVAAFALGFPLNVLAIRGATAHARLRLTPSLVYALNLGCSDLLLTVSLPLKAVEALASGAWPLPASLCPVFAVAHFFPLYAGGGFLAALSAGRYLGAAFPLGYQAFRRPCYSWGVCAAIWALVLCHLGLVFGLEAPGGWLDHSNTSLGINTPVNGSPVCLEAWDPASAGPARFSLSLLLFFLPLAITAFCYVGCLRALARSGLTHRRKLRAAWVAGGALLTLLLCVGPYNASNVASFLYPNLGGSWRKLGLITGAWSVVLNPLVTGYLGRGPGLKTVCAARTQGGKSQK

Activity [1]	EC50 ([2]; read-out: pEC50 (converted)) [nM]	Activity [3] [%]	Activity [4]	Compound	further results
inactive			inactive	Cc1ccc(C#Cc2ccc(OCC(=O)O)cc2)cc1	Activity [5]: inactive
inactive		100	inactive	C#Cc1cccc(C#Cc2ccc(CCC(=O)O)cc2)c1	
inactive	107	99	inactive	Cc1ccc(C#Cc2ccc(CCC(=O)O)cc2)cc1	
inactive			inactive	O=C(O)COc1ccc(C#Cc2ccc(O)cc2)cc1	Activity [5]: inactive
inactive	513	113	inactive	Cc1cccc(C#Cc2ccc(OCC(=O)O)cc2)c1	
inactive			inactive	O=C(O)COc1ccc(C#Cc2ccc(CO)cc2)cc1	Activity [5]: inactive
inactive	58.9	94	inactive	O=C(O)CCc1ccc(C#Cc2cccc([N+](=O)[O-])c2)cc1	
inactive		109	inactive	Cc1cccc(C#Cc2ccc(CCC(=O)O)cc2)c1	

Continued, molecule first:

Compound	Activity [1]	EC50 ([2]; read-out: pEC50 (converted)) [nM]	Activity [3] [%]	Activity [4]	further results
O=C(O)COc1ccc(C#Cc2cccc(O)c2)cc1	inactive	5620	86	inactive	
Cc1cc(C)cc(C#Cc2ccc(CCC(=O)O)cc2)c1	inactive		101	inactive	
O=C(O)COc1ccc(C#Cc2ccccc2)cc1	inactive	1260	104	inactive	
N#Cc1cccc(C#Cc2ccc(CCC(=O)O)cc2)c1	inactive		92	inactive	
Cc1ccccc1C#Cc1ccc(OCC(=O)O)cc1	inactive	3720	96	inactive	
O=C(O)CCc1ccc(C#Cc2cccc(C(F)(F)F)c2)cc1	inactive		98	inactive	
O=C(O)CCc1ccc(C#Cc2cccc(CO)c2)cc1	inactive		103	inactive	
O=C(O)CCc1ccc(C#Cc2cccc3ccccc23)cc1	inactive	85.1	100	inactive	
Cc1cccc(C#Cc2ccc(CCC(=O)O)cc2)c1C	inactive		108	inactive	
O=Cc1cccc(C#Cc2ccc(CCC(=O)O)cc2)c1	inactive		94	inactive	
O=C(O)CCc1ccc(C#Cc2ccccc2)cc1	inactive		106	inactive	EC50 ([2]; read-out: EC50): 96 nM
Cc1ccccc1C#Cc1ccc(CCC(=O)O)cc1	inactive		105	inactive	EC50 ([2]; read-out: EC50): 32 nM; Activity (Pancreatic islet [6]): inactive; Activity (INS-1E [7]): Active; Activity (Pancreatic islet [8]): inactive; Activity (INS-1E [9]): Active; Activity (INS-1E [10]): Active; Activity (INS-1E [11]): Active
Nc1cccc(C#Cc2ccc(CCC(=O)O)cc2)c1	inactive		96	inactive	
